Bridge positions count the residues as written; N and C are the ends. Peptide text beside a SMILES is read from it.

The subject of one series is L929 fibroblast cells. The experiment in a line: Bioluminescent mammalian cytotoxicity assay. It counts as cell-based, murine. The settings on record: L929 fibroblasts, up to 64 μg/mL, 8 h of exposure, bioluminescence. The method, then: Real-time killing of bacterial cells, P. aeruginosa or S. aureus, and mammalian cytotoxicity to assess dAMP off-target toxicity was evaluated using bioluminescent cells. The L929 fibroblast cells (ATCC, Manassas, VA, USA) were made bioluminescent by transfection with a luciferase gene. Cells (1 × 10^4 cells, 100 μL) were plated in 96-well black-walled plates and the candidate dAMPs were 2-fold serially diluted from specified concentrations in growth medium supplemented with 150 μg/mL D-luciferin. Each concentration was performed in triplicate, with the final volume being 200 μL. Imaging was performed at select times after the addition of the dAMP, and compared to concurrently run vehicle-control, using an IVIS Lumina imaging system (Caliper Life Sciences, Inc., Hopkinton, MA, USA). For imaging, the 96-well plate was positioned on the stage (12.5-cm field of view), with an open emission filter, binning of 4, and f-stop 1 and a 1-min exposure time. Monitoring bioluminescence allows assessment of the kinetics of cellular viability as there is a tight correlation between the bioluminescent signal and cell viability. […]
Figure 2 RP504, RP556 and RP557 induce limited mammalian cell toxicity. […] Cells were plated at 1×10^4 cells/well, allowed to adhere overnight and the specific dAMP added, and cytotoxicity evaluated through 8 h. […]

Series [1] has as its system P. aeruginosa 19660 (Xen5 luciferase). Kind of series: Bioluminescent time-kill assay. It counts as cell-based, Pseudomonas aeruginosa. To be noted: 8 μg/mL; RP553 at 60 min; bioluminescence. A digest of the protocol:
(§1)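 Luciferase-expressing bacteria exposed to 2-fold serial dilutions of peptide in growth medium with 150 μg/mL D-luciferin, triplicate. Bioluminescence imaged at select times versus concurrent vehicle control as a real-time viability read-out.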

Series [2] deals with S. aureus 49525 (Xen36 luciferase). It is filed as cell-based, Staphylococcus aureus. To be noted: 8 μg/mL, 60 min incubation, bioluminescence, triplicates from two independent experiments. In short, it runs like this: as §1

Turning to `CC[C@H](C)[C@@H]1NC(=O)CNC(=O)[C@H](CCCCN)NC(=O)[C@H](Cc2ccc(O)cc2)NC(=O)[C@@H]2CSSC[C@H](NC1=O)C(=O)N[C@@H](Cc1ccccc1)C(=O)N[C@@H](CCCCN)C(=O)N[C@@H](CCCCN)C(=O)N[C@H](C(=O)N[C@@H](CCCCN)C(N)=O)CSSC[C@H](NC(=O)[C@H](Cc1ccccc1)NC(=O)[C@@H](N)CCCNC(=N)N)C(=O)N[C@@H](Cc1c[nH]c3ccccc13)C(=O)N[C@@H](CCCCN)C(=O)N[C@@H](C(C)C)C(=O)N2` [RP557] (H-RFCWKVCYKGICFKKCK-NH2; disulfide 3-16, 7-12), the “mammalian cell toxicity (in words)” value in the series on L929 fibroblast cells is reported as “Limited toxicity”. Besides, the “P. aeruginosa killing (in words)” value in series [1] is listed as “immediate eradication”. In series [2], this molecule returned a S. aureus killing of 70%.

The record behind these values is article PMC7559897, “Designed Antimicrobial Peptides Against Trauma-Related Cutaneous Invasive Fungal Wound Infections” (Journal of Fungi, 2020).
